In patent publication US9932314B2, “Pyrazole compounds and their use as T-type calcium channel blockers” (IDORSIA PHARMACEUTICALS LTD, priority 2015, dated 2018):

Target: T1, voltage-dependent T-type calcium channel subunit alpha-1G (Cav3.2) (Homo sapiens, UniProt O95180)
T1 construct: expressed in transfected cells; host or cells: HEK293
Assay: FLIPR calcium flux assay, HEK293 cells recombinantly expressing Cav3.2
Type: cell-based
Settings: Cav3.2-channel, Fluo-4-AM, 3 min incubation, stimulation with 10 mM CaCl2
How it was run: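 HEK293 cells stably expressing human Cav3.2 were loaded with Fluo-4-AM. Compounds diluted in TEAC buffer (pH 7.2) were preincubated for 3 min, then Ca2+ entry was triggered by 10 mM final CaCl2. Inhibition curves were fitted sigmoidally to the area under the fluorescence trace.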

T1 sequence (O95180 whole entry): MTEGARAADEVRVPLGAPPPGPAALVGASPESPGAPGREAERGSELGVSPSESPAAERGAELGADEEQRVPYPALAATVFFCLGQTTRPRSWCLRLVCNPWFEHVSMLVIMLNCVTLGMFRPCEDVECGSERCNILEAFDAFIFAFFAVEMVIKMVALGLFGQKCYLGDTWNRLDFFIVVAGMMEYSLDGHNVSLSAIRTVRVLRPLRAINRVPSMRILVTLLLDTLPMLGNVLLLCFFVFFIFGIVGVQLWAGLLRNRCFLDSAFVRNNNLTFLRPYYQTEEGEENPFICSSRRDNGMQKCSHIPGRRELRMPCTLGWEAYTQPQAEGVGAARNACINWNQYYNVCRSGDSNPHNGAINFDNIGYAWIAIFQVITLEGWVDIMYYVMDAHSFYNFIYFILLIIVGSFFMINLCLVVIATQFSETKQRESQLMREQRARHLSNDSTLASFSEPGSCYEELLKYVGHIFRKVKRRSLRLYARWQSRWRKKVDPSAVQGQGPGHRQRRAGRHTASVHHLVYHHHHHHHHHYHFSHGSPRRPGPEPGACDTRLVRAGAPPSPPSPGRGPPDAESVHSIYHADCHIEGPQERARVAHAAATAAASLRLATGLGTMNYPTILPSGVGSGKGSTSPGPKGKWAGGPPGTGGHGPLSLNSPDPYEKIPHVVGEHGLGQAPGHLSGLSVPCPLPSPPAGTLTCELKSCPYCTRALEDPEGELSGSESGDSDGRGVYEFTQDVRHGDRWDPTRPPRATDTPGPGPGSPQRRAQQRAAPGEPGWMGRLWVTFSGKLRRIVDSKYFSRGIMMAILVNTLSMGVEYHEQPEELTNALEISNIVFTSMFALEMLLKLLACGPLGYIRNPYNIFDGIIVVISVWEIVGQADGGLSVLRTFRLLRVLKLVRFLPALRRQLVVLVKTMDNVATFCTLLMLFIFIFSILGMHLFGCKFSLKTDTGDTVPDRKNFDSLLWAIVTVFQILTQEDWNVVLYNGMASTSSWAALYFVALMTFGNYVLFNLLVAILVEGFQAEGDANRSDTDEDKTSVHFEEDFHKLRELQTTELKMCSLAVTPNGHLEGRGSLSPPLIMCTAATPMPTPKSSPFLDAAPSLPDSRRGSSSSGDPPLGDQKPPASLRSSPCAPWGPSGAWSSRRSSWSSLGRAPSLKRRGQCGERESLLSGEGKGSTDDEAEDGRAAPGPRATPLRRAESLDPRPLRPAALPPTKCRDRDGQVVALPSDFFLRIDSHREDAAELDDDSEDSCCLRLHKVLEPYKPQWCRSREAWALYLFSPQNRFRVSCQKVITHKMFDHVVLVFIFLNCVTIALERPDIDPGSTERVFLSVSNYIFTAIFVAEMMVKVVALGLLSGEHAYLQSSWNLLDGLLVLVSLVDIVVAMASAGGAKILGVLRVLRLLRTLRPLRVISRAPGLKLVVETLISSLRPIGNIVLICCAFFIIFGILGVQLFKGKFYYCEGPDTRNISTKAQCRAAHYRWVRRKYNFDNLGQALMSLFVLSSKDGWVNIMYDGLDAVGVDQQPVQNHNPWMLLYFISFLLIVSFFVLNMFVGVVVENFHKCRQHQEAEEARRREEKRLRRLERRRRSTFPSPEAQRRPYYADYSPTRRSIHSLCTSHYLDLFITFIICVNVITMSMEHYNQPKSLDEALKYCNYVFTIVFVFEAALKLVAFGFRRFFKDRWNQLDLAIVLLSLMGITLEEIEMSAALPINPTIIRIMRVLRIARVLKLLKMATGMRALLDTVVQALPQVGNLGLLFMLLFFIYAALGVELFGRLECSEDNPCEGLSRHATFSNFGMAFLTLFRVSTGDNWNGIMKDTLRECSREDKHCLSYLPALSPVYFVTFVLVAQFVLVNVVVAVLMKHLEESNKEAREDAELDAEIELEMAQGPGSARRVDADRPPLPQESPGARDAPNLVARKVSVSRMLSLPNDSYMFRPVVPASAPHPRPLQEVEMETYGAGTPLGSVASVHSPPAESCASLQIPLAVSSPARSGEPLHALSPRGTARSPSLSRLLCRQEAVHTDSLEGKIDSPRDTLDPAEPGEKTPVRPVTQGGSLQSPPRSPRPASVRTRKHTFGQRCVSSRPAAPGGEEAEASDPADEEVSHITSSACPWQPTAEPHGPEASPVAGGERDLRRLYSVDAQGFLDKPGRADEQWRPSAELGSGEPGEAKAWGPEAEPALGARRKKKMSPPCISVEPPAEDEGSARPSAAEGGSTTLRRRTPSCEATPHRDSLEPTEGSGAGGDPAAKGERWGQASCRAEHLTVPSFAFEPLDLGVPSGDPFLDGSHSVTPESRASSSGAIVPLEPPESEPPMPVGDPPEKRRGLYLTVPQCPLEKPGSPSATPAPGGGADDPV

IC50	Structure (SMILES)
599 nM	COc1ccc(Cn2ccc(NC(=O)Cc3cnc4c(ccn4C)c3)n2)cc1 [Example 215, N-[1-(4-Methoxy-benzyl)-1H-pyrazol-3-yl]-2-(1-methyl-1H-pyrrolo[2,3-b]pyridin-5-yl)-acetamide]
269 nM	N#Cc1ccc(Cn2ccc(NC(=O)Cc3ccc(C4CC4)nc3)n2)cc1F [Example 216, N-[1-(4-Cyano-3-fluoro-benzyl)-1H-pyrazol-3-yl]-2-(6-cyclopropyl-pyridin-3-yl)-acetamide]
79 nM	O=C(Cc1ccc2[nH]c(=O)oc2c1)Nc1ccn(Cc2ccc(F)c(F)c2)n1 [Example 218, N-[1-(3,4-Difluoro-benzyl)-1H-pyrazol-3-yl]-2-(2-oxo-2,3-dihydro-benzooxazol-6-yl)-acetamide]
3.1 nM	Cn1ccc2cc(CC(=O)Nc3ccn(Cc4ccc(F)c(F)c4)n3)ccc21 [Example 220, N-[1-(3,4-Difluoro-benzyl)-1H-pyrazol-3-yl]-2-(1-methyl-1H-indol-5-yl)-acetamide]
5 nM	Cn1ccc2ccc(CC(=O)Nc3ccn(Cc4ccc(F)c(F)c4)n3)cc21 [Example 221, N-[1-(3,4-Difluoro-benzyl)-1H-pyrazol-3-yl]-2-(1-methyl-1H-indol-6-yl)-acetamide]
21 nM	Cn1ncc2ccc(CC(=O)Nc3ccn(Cc4ccc(F)c(F)c4)n3)cc21 [Example 224, N-[1-(3,4-Difluoro-benzyl)-1H-pyrazol-3-yl]-2-(1-methyl-1H-indazol-6-yl)-acetamide]
25 nM	O=C(Cc1ccc(C2(O)COC2)cc1)Nc1ccn(Cc2ccc(F)c(F)c2)n1 [Example 226, N-[1-(3,4-Difluoro-benzyl)-1H-pyrazol-3-yl]-2-[4-(3-hydroxy-oxetan-3-yl)-phenyl]-acetamide]
44 nM	CC1(C)C(=O)Nc2ccc(CC(=O)Nc3ccn(Cc4ccc(F)c(F)c4)n3)cc21 [Example 228, N-[1-(3,4-Difluoro-benzyl)-1H-pyrazol-3-yl]-2-(3,3-dimethyl-2-oxo-2,3-dihydro-1H-indol-5-yl)-acetamide]
255 nM	Cn1cnc2cc(CC(=O)Nc3ccn(Cc4ccc(F)c(F)c4)n3)ccc21 [Example 230, N-[1-(3,4-Difluoro-benzyl)-1H-pyrazol-3-yl]-2-(1-methyl-1H-benzoimidazol-5-yl)-acetamide]
21 nM	COC1(c2ccc(CC(=O)Nc3ccn(Cc4ccc(F)c(F)c4)n3)cc2)COC1 [Example 231, N-[1-(3,4-Difluoro-benzyl)-1H-pyrazol-3-yl]-2-[4-(3-methoxy-oxetan-3-yl)-phenyl]-acetamide]
42 nM	Cc1nc(-c2ccc(CC(=O)Nc3ccn(Cc4ccc(F)c(F)c4)n3)cc2)no1 [Example 235, N-[1-(3,4-Difluoro-benzyl)-1H-pyrazol-3-yl]-2-[4-(5-methyl-[1,2,4]oxadiazol-3-yl)-phenyl]-acetamide]
18 nM	O=C(Cc1ccc(-c2ncon2)cc1)Nc1ccn(Cc2ccc(F)c(F)c2)n1 [Example 236, N-[1-(3,4-Difluoro-benzyl)-1H-pyrazol-3-yl]-2-(4-[1,2,4]oxadiazol-3-yl-phenyl)-acetamide]
2.4 nM	CN(C)c1ccc(CC(=O)Nc2ccn(Cc3ccc(Br)cc3)n2)cc1 [Example 239, N-[1-(4-Bromo-benzyl)-1H-pyrazol-3-yl]-2-(4-dimethylamino-phenyl)-acetamide]

Further lines, the molecule ahead of its results:

Structure (SMILES)	IC50
CN(CC1CC1)c1ccc(CC(=O)Nc2ccn(Cc3ccc(C#N)cn3)n2)cn1 [Example 184, N-[1-(5-Cyano-pyridin-2-ylmethyl)-1H-pyrazol-3-yl]-2-[6-(cyclopropylmethyl-methyl-amino)-pyridin-3-yl]-acetamide]	490 nM
CN(CC1CC1)c1ccc(CC(=O)Nc2ccn(Cc3ccc(F)c(F)c3)n2)cn1 [Example 185, 2-[6-(Cyclopropylmethyl-methyl-amino)-pyridin-3-yl]-N-[1-(3,4-difluoro-benzyl)-1H-pyrazol-3-yl]-acetamide]	7.7 nM
CN(CC1CC1)c1ccc(CC(=O)Nc2ccn(Cc3ccc(C#N)cc3)n2)cn1 [Example 186, N-[1-(4-Cyano-benzyl)-1H-pyrazol-3-yl]-2-[6-(cyclopropylmethyl-methyl-amino)-pyridin-3-yl]-acetamide]	41 nM
CN(CC1CC1)c1ccc(CC(=O)Nc2ccn(Cc3ccc(F)cc3)n2)cn1 [Example 187, 2-[6-(Cyclopropylmethyl-methyl-amino)-pyridin-3-yl]-N-[1-(4-fluoro-benzyl)-1H-pyrazol-3-yl]-acetamide]	15 nM
COc1ccc(Cn2ccc(NC(=O)Cc3ccc(N(C)CC4CC4)nc3)n2)cc1 [Example 188, 2-[6-(Cyclopropylmethyl-methyl-amino)-pyridin-3-yl]-N-[1-(4-methoxy-benzyl)-1H-pyrazol-3-yl]-acetamide]	60 nM
CCN(CC)c1ccc(CC(=O)Nc2ccn(Cc3ccc(C#N)cc3)n2)cn1 [Example 189, N-[1-(4-Cyano-benzyl)-1H-pyrazol-3-yl]-2-(6-diethylamino-pyridin-3-yl)-acetamide]	88 nM
CCN(CC)c1ccc(CC(=O)Nc2ccn(Cc3ccc(F)cc3)n2)cn1 [Example 190, 2-(6-Diethylamino-pyridin-3-yl)-N-[1-(4-fluoro-benzyl)-1H-pyrazol-3-yl]-acetamide]	21 nM
CCN(CC)c1ccc(CC(=O)Nc2ccn(Cc3ccc(OC)cc3)n2)cn1 [Example 191, 2-(6-Diethylamino-pyridin-3-yl)-N-[1-(4-methoxy-benzyl)-1H-pyrazol-3-yl]-acetamide]	93 nM
CC(C)c1ccc(CC(=O)Nc2ccn(Cc3ccc(C4CC4)cc3)n2)cc1 [Example 192, N-[1-(4-Cyclopropyl-benzyl)-1H-pyrazol-3-yl]-2-(4-isopropyl-phenyl)-acetamide]	133 nM
O=C(Cc1ccc(C2CC2)nc1)Nc1ccn(Cc2ccc(Cl)c(F)c2)n1 [Example 193, N-[1-(4-Chloro-3-fluoro-benzyl)-1H-pyrazol-3-yl]-2-(6-cyclopropyl-pyridin-3-yl)-acetamide]	78 nM
O=C(Cc1ccc(C2CC2)nc1)Nc1ccn(Cc2ccc(F)c(Cl)c2)n1 [Example 194, N-[1-(3-Chloro-4-fluoro-benzyl)-1H-pyrazol-3-yl]-2-(6-cyclopropyl-pyridin-3-yl)-acetamide]	61 nM
CC(C)c1ccc(CC(=O)Nc2ccn(Cc3ccc(OC4CC4)cc3)n2)cc1 [Example 195, N-[1-(4-Cyclopropoxy-benzyl)-1H-pyrazol-3-yl]-2-(4-isopropyl-phenyl)-acetamide]	47 nM
N#Cc1ccc(Cn2ccc(NC(=O)Cc3ccc(OC4CCC4)cc3)n2)nc1 [Example 196, N-[1-(5-Cyano-pyridin-2-ylmethyl)-1H-pyrazol-3-yl]-2-(4-cyclobutoxy-phenyl)-acetamide]	176 nM
N#Cc1ccc(Cn2ccc(NC(=O)Cc3ccc(OC4CCC4)cc3)n2)cc1 [Example 197, N-[1-(4-Cyano-benzyl)-1H-pyrazol-3-yl]-2-(4-cyclobutoxy-phenyl)-acetamide]	54 nM
O=C(Cc1ccc(OC2CCC2)cc1)Nc1ccn(Cc2ccc(F)cc2)n1 [Example 198, 2-(4-Cyclobutoxy-phenyl)-N-[1-(4-fluoro-benzyl)-1H-pyrazol-3-yl]-acetamide]	16 nM
COc1ccc(Cn2ccc(NC(=O)Cc3ccc(OC4CCC4)cc3)n2)cc1 [Example 199, 2-(4-Cyclobutoxy-phenyl)-N-[1-(4-methoxy-benzyl)-1H-pyrazol-3-yl]-acetamide]	74 nM
O=C(Cc1ccc(OC2CCC2)cc1)Nc1ccn(Cc2ccc(F)cn2)n1 [Example 200, 2-(4-Cyclobutoxy-phenyl)-N-[1-(5-fluoro-pyridin-2-ylmethyl)-1H-pyrazol-3-yl]-acetamide]	67 nM
O=C(Cc1ccc(N2CCCC2=O)cc1)Nc1ccn(Cc2ccc(F)cc2)n1 [Example 204, N-[1-(4-Fluoro-benzyl)-1H-pyrazol-3-yl]-2-[4-(2-oxo-pyrrolidin-1-yl)-phenyl]-acetamide]	79 nM
O=C(Cc1ccc2nccnc2c1)Nc1ccn(Cc2ccc(F)c(F)c2)n1 [Example 205, N-[1-(3,4-Difluoro-benzyl)-1H-pyrazol-3-yl]-2-quinoxalin-6-yl-acetamide]	288 nM
O=C(Cc1ccc2cccnc2c1)Nc1ccn(Cc2ccc(F)c(F)c2)n1 [Example 206, N-[1-(3,4-Difluoro-benzyl)-1H-pyrazol-3-yl]-2-quinolin-7-yl-acetamide]	50 nM
O=C(Cc1ccc2c(c1)OCC(=O)N2)Nc1ccn(Cc2ccc(F)c(F)c2)n1 [Example 208, N-[1-(3,4-Difluoro-benzyl)-1H-pyrazol-3-yl]-2-(3-oxo-3,4-dihydro-2H-benzo[1,4]oxazin-7-yl)-acetamide]	88 nM
CN1C(=O)COc2cc(CC(=O)Nc3ccn(Cc4ccc(F)c(F)c4)n3)ccc21 [Example 209, N-[1-(3,4-Difluoro-benzyl)-1H-pyrazol-3-yl]-2-(4-methyl-3-oxo-3,4-dihydro-2H-benzo[1,4]oxazin-7-yl)-acetamide]	53 nM
CC(C)c1ccc(CC(=O)Nc2ccn(Cc3ccc(F)c(C#N)n3)n2)cc1 [Example 210, N-[1-(6-Cyano-5-fluoro-pyridin-2-ylmethyl)-1H-pyrazol-3-yl]-2-(4-isopropyl-phenyl)-acetamide]	8 nM
CC(C)c1ccc(CC(=O)Nc2ccn(Cc3ccc(F)c(Cl)n3)n2)cc1 [Example 211, N-[1-(6-Chloro-5-fluoro-pyridin-2-ylmethyl)-1H-pyrazol-3-yl]-2-(4-isopropyl-phenyl)-acetamide]	3.1 nM
Cn1ccc2cc(CC(=O)Nc3ccn(Cc4ccc(F)cc4)n3)cnc21 [Example 213, N-[1-(4-Fluoro-benzyl)-1H-pyrazol-3-yl]-2-(1-methyl-1H-pyrrolo[2,3-b]pyridin-5-yl)-acetamide]	31 nM
Cn1ccc2cc(CC(=O)Nc3ccn(Cc4ccc(C#N)cc4)n3)cnc21 [Example 214, N-[1-(4-Cyano-benzyl)-1H-pyrazol-3-yl]-2-(1-methyl-1H-pyrrolo[2,3-b]pyridin-5-yl)-acetamide]	164 nM
